Columns and labels:
[1] = target: T1, SSTR4 (Homo sapiens, UniProt P31391, F211A); experiment: cAMP accumulation assay (agonist-induced inhibition of forskolin-stimulated cAMP), SSTR4, HEK293F; type: cell-based; settings: SSTR4 mutant F211^5.38A; mean ± SEM;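 note: transiently transfected cells incubated 40 min at room temperature with 4 µM forskolin and graded ligand, cAMP read by LANCE Ultra TR-FRET kit, values normalized to WT receptor per ligand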
T1 construct: expressed in transfected cells; host or cells: HEK293F
T1 sequence (P31391 whole entry F211A): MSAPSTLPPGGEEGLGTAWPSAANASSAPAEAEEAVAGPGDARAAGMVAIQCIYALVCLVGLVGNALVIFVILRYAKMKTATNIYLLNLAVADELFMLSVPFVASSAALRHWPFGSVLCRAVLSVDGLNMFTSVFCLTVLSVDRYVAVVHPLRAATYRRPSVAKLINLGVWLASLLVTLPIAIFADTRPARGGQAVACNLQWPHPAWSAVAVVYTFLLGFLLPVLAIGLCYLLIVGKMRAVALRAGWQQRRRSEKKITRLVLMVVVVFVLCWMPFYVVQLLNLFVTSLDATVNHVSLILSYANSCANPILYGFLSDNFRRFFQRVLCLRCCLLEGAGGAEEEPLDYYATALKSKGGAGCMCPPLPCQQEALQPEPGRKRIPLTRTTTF
Description: (§1) HEK293F cells were transiently transfected with WT or mutant SSTR2/SSTR4 using transfection reagent (PEI MAX 2000, Polysciences) and incubated at 37 °C in 5% CO2. Forty-eight hours after transfection, cells were centrifuged and resuspended in stimulation buffer (Hanks’ balanced salt solution (HBSS) supplemented with 5 mM HEPES, 0.5 mM IBMX and 0.1% (w/v) bovine serum albumin (BSA), pH 7.4) to a density of 200,000 cells/mL and added to 384-well white plates (PerkinElmer, 1000 cells/well). cAMP accumulation was measured by a LANCE Ultra cAMP kit (PerkinElmer) according to the manufacturer’s instructions. In brief, transfected cells were incubated for 40 min in stimulation buffer with 2.5 μL forskolin (SSTR2: 2 μM; SSTR4: 4 μM) and gradient concentration of ligand at RT. The reactions were stopped by addition of lysis buffer containing 5 μL Eu-cAMP tracer and 5 μL ULight-anti-cAMP. Plates were then incubated for 60 min at RT and time-resolved FRET signals were measured at 620 nm and 665 nm by an EnVision multilabel plate reader (PerkinElmer). Data were analyzed in GraphPad PRISM 8 and all values were normalized to the WT for each ligand. All outcomes were repeated at least three times.
(§2) aMutants represent that mutations were introduced separately into the WT receptors and
(§3) transiently expressed in HEK 293F cells.
(§4) bThe EC50 ratio was shown as EC50(mutant)/EC50(WT), indicating the shift between the WT
(§5) and mutant curves, reflecting the effect of the mutations on receptor signaling.
(§6) cData are shown as mean ± S.E.M. from at least three independent experiments
(§7) performed in technical triplicate. One-way ANOVA was performed followed by
(§8) Dunnett’s post-test and compared with WT. The P value was defined as: *P<0.05;
(§9) d The span is defined as the window between the maximal agonists response (Emax) and
(§10) e Sample size; the number of independent experiments performed in technical triplicate.
(§11) f Receptor expression level of HEK 293F cells was determined independently by flow
(§12) cytometry with anti-FLAG antibody and shown as per cent compared to the WT.

[2] = target: T2, SSTR4 (Homo sapiens, UniProt P31391, L123A); experiment: as above; type: cell-based; settings: SSTR4 mutant L123^3.29A; mean ± SEM
T2 construct: expressed in transfected cells; host or cells: HEK293F
T2 sequence (P31391 whole entry L123A): as the sequence (P31391 whole entry F211A) above, with L123A, A211F counted along it
Description: as §1, §2, §3, §4, §5, §6, §7, §8, §9, §10, §11, §12

[3] = target: T3, SSTR4 (Homo sapiens, UniProt P31391, L297A); experiment: as above; type: cell-based; settings: SSTR4 mutant L297^7.39A; mean ± SEM
T3 construct: expressed in transfected cells; host or cells: HEK293F
T3 sequence (P31391 whole entry L297A): as the sequence (P31391 whole entry F211A) above, with A211F, L297A counted along it
Description: as §1, §2, §3, §4, §5, §6, §7, §8, §9, §10, §11, §12

[4] = target: T4, SSTR4 (Homo sapiens, UniProt P31391, N282A); experiment: as above; type: cell-based; settings: SSTR4 mutant N282^6.58A; mean ± SEM
T4 construct: expressed in transfected cells; host or cells: HEK293F
T4 sequence (P31391 whole entry N282A): as the sequence (P31391 whole entry F211A) above, with A211F, N282A counted along it
Description: as §1, §2, §3, §4, §5, §6, §7, §8, §9, §10, §11, §12

[5] = target: T5, SSTR4 (Homo sapiens, UniProt P31391, N293A); experiment: as above; type: cell-based; settings: SSTR4 mutant N293^7.35A; mean ± SEM
T5 construct: expressed in transfected cells; host or cells: HEK293F
T5 sequence (P31391 whole entry N293A): as the sequence (P31391 whole entry F211A) above, with A211F, N293A counted along it
Description: as §1, §2, §3, §4, §5, §6, §7, §8, §9, §10, §11, §12

[6] = target: T6, SSTR4 (Homo sapiens, UniProt P31391, V103L); experiment: as above; type: cell-based; settings: SSTR4 mutant V103^2.60L; mean ± SEM
T6 construct: expressed in transfected cells; host or cells: HEK293F
T6 sequence (P31391 whole entry V103L): as the sequence (P31391 whole entry F211A) above, with V103L, A211F counted along it
Description: as §1, §2, §3, §4, §5, §6, §7, §8, §9, §10, §11, §12

[7] = test system: SSTR4; experiment: as above; type: cell-based, human; settings: for EC50 ratio: EC50(mutant)/EC50(WT)
Description: as §1, §2, §3, §4, §5, §6, §7, §8, §9, §10, §11, §12

[8] = target: SSTR4 (Homo sapiens, UniProt P31391); experiment: Whole cell binding assay, SSTR4, competition with 125I-Tyr11-SST14, CHO-K1; parameters: expressed in transfected cells; settings: WT SSTR4, mean ± SEM
SSTR4 (Homo sapiens, UniProt P31391), sequence (P31391 whole entry): as the sequence (P31391 whole entry F211A) above, with A211F counted along it
Description: (§13) For SSTR2 and SSTR4, CHO-K1 cells were cultured in F12 medium with 10% FBS and seeded at a density of 30,000 cells/well in Isoplate-96 plates (PerkinElmer). Twenty-four hours after transfection with the WT or mutant SSTR2/SSTR4, CHO-K1 cells were washed twice and incubated with blocking buffer (F12 supplemented with 25 mM HEPES and 0.1% (w/v) BSA, pH 7.4) for 2 h at 37 °C. […] Following incubation, cells were washed three times with ice-cold PBS and lysed by 50 μL lysis buffer (PBS supplemented with 20 mM Tris-HCl, 1% Triton X-100, pH 7.4). The radioactivity was subsequently counted (counts/min, CPM) in a scintillation counter (MicroBeta[2] Plate Counter, PerkinElmer) using a scintillation cocktail (OptiPhaseSuperMix, PerkinElmer). Data were analyzed by nonlinear regression using GraphPad PRISM 8.
(§14) aMutants represent that all mutations were introduced separately into the WT receptors
and expressed in CHO K1 cells.
(§15) bThe IC50 ratio was shown as IC50(mutant)/IC50(WT), indicating the shift between the WT
(§16) and mutant curves, reflecting the effect of the mutations on ligand binding.
(§17) cData are shown as mean ± S.E.M. form at least three independent experiments
as §7
(§18) Dunnett’s post-test and compared with WT.
as §9, §10

[9] = target: SSTR4 (Homo sapiens, UniProt P31391, D126A); experiment: as above; parameters: expressed in transfected cells; settings: SSTR4 mutant D126^3.32A; mean ± SEM
SSTR4 (Homo sapiens, UniProt P31391, D126A), sequence (P31391 whole entry D126A): as the sequence (P31391 whole entry F211A) above, with D126A, A211F counted along it
Description: as §13, §14
and expressed in CHO K1 cells.
as §15, §16, §17, §7, §18, §9, §10

[10] = target: SSTR4 (Homo sapiens, UniProt P31391, F275A); experiment: as above; parameters: expressed in transfected cells; settings: SSTR4 mutant F275^6.51A; mean ± SEM
SSTR4 (Homo sapiens, UniProt P31391, F275A), sequence (P31391 whole entry F275A): as the sequence (P31391 whole entry F211A) above, with A211F, F275A counted along it
Description: as §13, §14
and expressed in CHO K1 cells.
as §15, §16, §17, §7, §18, §9, §10

[11] = target: SSTR4 (Homo sapiens, UniProt P31391, M130A); experiment: as above; parameters: expressed in transfected cells; settings: SSTR4 mutant M130^3.36A; mean ± SEM
SSTR4 (Homo sapiens, UniProt P31391, M130A), sequence (P31391 whole entry M130A): as the sequence (P31391 whole entry F211A) above, with M130A, A211F counted along it
Description: as §13, §14
and expressed in CHO K1 cells.
as §15, §16, §17, §7, §18, §9, §10

[12] = target: SSTR4 (Homo sapiens, UniProt P31391, N199A); experiment: as above; parameters: expressed in transfected cells; settings: SSTR4 mutant N199^ECL2A; mean ± SEM
SSTR4 (Homo sapiens, UniProt P31391, N199A), sequence (P31391 whole entry N199A): as the sequence (P31391 whole entry F211A) above, with N199A, A211F counted along it
Description: as §13, §14
and expressed in CHO K1 cells.
as §15, §16, §17, §7, §18, §9, §10

[13] = target: SSTR4 (Homo sapiens, UniProt P31391, Q279A); experiment: as above; parameters: expressed in transfected cells; settings: SSTR4 mutant Q279^6.55A; mean ± SEM
SSTR4 (Homo sapiens, UniProt P31391, Q279A), sequence (P31391 whole entry Q279A): as the sequence (P31391 whole entry F211A) above, with A211F, Q279A counted along it
Description: as §13, §14
and expressed in CHO K1 cells.
as §15, §16, §17, §7, §18, §9, §10

[14] = target: SSTR4 (Homo sapiens, UniProt P31391, T215A); experiment: as above; parameters: expressed in transfected cells; settings: SSTR4 mutant T215^5.42A; mean ± SEM
SSTR4 (Homo sapiens, UniProt P31391, T215A), sequence (P31391 whole entry T215A): as the sequence (P31391 whole entry F211A) above, with A211F, T215A counted along it
Description: as §13, §14
and expressed in CHO K1 cells.
as §15, §16, §17, §7, §18, §9, §10

[15] = target: SSTR4 (Homo sapiens, UniProt P31391, V264F); experiment: as above; parameters: expressed in transfected cells; settings: Construct 4 SSTR4, mean ± SEM
SSTR4 (Homo sapiens, UniProt P31391, V264F), sequence (P31391 1-328 V264F): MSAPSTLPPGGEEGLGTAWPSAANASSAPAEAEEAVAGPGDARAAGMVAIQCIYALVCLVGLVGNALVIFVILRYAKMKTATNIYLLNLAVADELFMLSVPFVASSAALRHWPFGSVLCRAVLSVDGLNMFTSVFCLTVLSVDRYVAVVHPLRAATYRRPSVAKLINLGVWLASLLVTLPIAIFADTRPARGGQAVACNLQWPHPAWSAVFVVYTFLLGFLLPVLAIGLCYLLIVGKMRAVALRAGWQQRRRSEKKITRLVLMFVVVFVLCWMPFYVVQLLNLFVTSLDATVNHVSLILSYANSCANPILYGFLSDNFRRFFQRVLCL
Description: as §13, §14
and expressed in CHO K1 cells.
as §15, §16, §17, §7, §18, §9, §10

[16] = target: SSTR4 (Homo sapiens, UniProt P31391, Y301A); experiment: as above; parameters: expressed in transfected cells; settings: SSTR4 mutant Y301^7.43A; mean ± SEM
SSTR4 (Homo sapiens, UniProt P31391, Y301A), sequence (P31391 whole entry Y301A): as the sequence (P31391 whole entry F211A) above, with A211F, Y301A counted along it
Description: as §13, §14
and expressed in CHO K1 cells.
as §15, §16, §17, §7, §18, §9, §10

[17] = test system: SSTR2; settings: cited from earlier work
[18] = target: SSTR2 (Homo sapiens, UniProt P30874); experiment: Whole cell binding assay, SSTR2, competition with 125I-Tyr11-SST14, CHO-K1; settings: WT SSTR2, mean ± SEM;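 note: Cell-bound radioactivity in lysed CHO-K1 cells read by scintillation counting, each mutation introduced singly into the WT receptor, at least three independent experiments run in technical triplicate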
SSTR2 (Homo sapiens, UniProt P30874), sequence (P30874 whole entry): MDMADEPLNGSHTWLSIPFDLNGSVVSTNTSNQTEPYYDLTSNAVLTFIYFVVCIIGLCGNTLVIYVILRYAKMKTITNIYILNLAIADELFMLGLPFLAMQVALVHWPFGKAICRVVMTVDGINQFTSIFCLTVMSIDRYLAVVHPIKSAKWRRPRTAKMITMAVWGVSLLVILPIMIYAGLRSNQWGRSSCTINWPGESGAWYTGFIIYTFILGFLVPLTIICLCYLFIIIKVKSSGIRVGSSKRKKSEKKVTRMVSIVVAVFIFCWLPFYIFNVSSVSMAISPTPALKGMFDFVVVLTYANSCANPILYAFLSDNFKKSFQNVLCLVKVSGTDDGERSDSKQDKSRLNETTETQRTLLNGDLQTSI
Description: as §13, §14
and expressed in CHO K1 cells.
as §15, §16, §17, §7, §18, §9, §10

[19] = target: SSTR2 (Homo sapiens, UniProt P30874, F272A); experiment: as above; settings: SSTR2 mutant F272^6.51A; mean ± SEM
SSTR2 (Homo sapiens, UniProt P30874, F272A), sequence (P30874 whole entry F272A): as the sequence (P30874 whole entry) above, with F272A counted along it
Description: as §13, §14
and expressed in CHO K1 cells.
as §15, §16, §17, §7, §18, §9, §10

[20] = target: SSTR2 (Homo sapiens, UniProt P30874, F294A); experiment: as above; settings: SSTR2 mutant F294^7.35A; mean ± SEM
SSTR2 (Homo sapiens, UniProt P30874, F294A), sequence (P30874 whole entry F294A): as the sequence (P30874 whole entry) above, with F294A counted along it
Description: as §13, §14
and expressed in CHO K1 cells.
as §15, §16, §17, §7, §18, §9, §10

[21] = target: SSTR2 (Homo sapiens, UniProt P30874, Q102A); experiment: as above; settings: SSTR2 mutant Q102^2.63A; mean ± SEM
SSTR2 (Homo sapiens, UniProt P30874, Q102A), sequence (P30874 whole entry Q102A): as the sequence (P30874 whole entry) above, with Q102A counted along it
Description: as §13, §14
and expressed in CHO K1 cells.
as §15, §16, §17, §7, §18, §9, §10

[22] = target: SSTR2 (Homo sapiens, UniProt P30874, T194A); experiment: as above; settings: SSTR2 mutant T194^ECL2A; mean ± SEM
SSTR2 (Homo sapiens, UniProt P30874, T194A), sequence (P30874 whole entry T194A): as the sequence (P30874 whole entry) above, with T194A counted along it
Description: as §13, §14
and expressed in CHO K1 cells.
as §15, §16, §17, §7, §18, §9, §10

[23] = target: SSTR2 (Homo sapiens, UniProt P30874, Y302A); experiment: as above; settings: SSTR2 mutant Y302^7.43A; mean ± SEM
SSTR2 (Homo sapiens, UniProt P30874, Y302A), sequence (P30874 whole entry Y302A): as the sequence (P30874 whole entry) above, with Y302A counted along it
Description: as §13, §14
and expressed in CHO K1 cells.
as §15, §16, §17, §7, §18, §9, §10

[24] = at least three independent experiments

Cc1ccc(S(=O)(=O)N[C@@H](CCN)C(=O)N[C@@H](Cc2ccccc2)C(N)=O)c2ccccc12 [J-2156]
Span [1]: 94±7 % of WT
pEC50 ± SEM [1]: 8.20±0.17
Span [2]: 61±6 % of WT
pEC50 ± SEM [2]: 9.49±0.23
Span [3]: 111 ± 8 % of WT
pEC50 ± SEM [3]: 7.59±0.16
Span [4]: 62±5 % of WT
pEC50 ± SEM [4]: 9.99±0.21
Span [5]: 87±6 % of WT
pEC50 ± SEM [5]: 9.30±0.17
Span [6]: 40±4 % of WT
pEC50 ± SEM [6]: 9.00±0.25
EC50 ratio ([7]; Construct 4 SSTR4): 0.2
effect of alanine mutation on agonist potency ([7]; SSTR4 F275^6.51 and Y276^6.52): significant reduction in agonist potency
EC50 ratio ([7]; SSTR4 mutant F211^5.38A): 33
EC50 ratio ([7]; SSTR4 mutant L123^3.29A): 2
EC50 ratio ([7]; SSTR4 mutant L297^7.39A): 137
EC50 ratio ([7]; SSTR4 mutant M130^3.36A): 4
EC50 ratio ([7]; SSTR4 mutant N199^ECL2A): 0.3
EC50 ratio ([7]; SSTR4 mutant N293^7.35A): 3
EC50 ratio ([7]; SSTR4 mutant Q279^6.55A): 1
EC50 ratio ([7]; SSTR4 mutant T215^5.42A): 1
EC50 ratio ([7]; SSTR4 mutant V103^2.60L): 5
decrease of potency ([7]; SSTR4 mutant V103^2.60 to leucine): ~ 5 fold
EC50 ratio ([7]; SSTR4 mutant Y276^6.52A): 1016
EC50 ratio ([7]; SSTR4 mutant Y301^7.43A): 497
EC50 ratio ([7]; WT SSTR4): 1
pKi ± SEM ([8]; competition with 125I-SST-14): 9.21 ± 0.14
Span [8]: 100±6 % of WT
pIC50 ± SEM [8, 24]: 9.21±0.14
Span [9]: 12±3 % of WT
Span [10]: 11 ± 4 % of WT
Span [11]: 12±4 % of WT
Span [12]: 13±3 % of WT
Span [13]: 26±4 % of WT
pIC50 ± SEM [13]: 8.93±0.38
Span [14]: 67±4 % of WT
pIC50 ± SEM [14]: 9.08±0.16
pKi ± SEM ([15]; competition with 125I-SST-14): 9.47
Span [15]: 96±9 % of WT
pIC50 ± SEM [15]: 9.47±0.25
Span [16]: 15±5 % of WT

C[C@@H](c1c[nH]c2ccccc12)[C@@H](NC(=O)N1CCC(n2c(=O)[nH]c3ccccc32)CC1)C(=O)N[C@@H](CCCCN)C(=O)OC(C)(C)C [L-054,522]
selectivity for SSTR2 [17]: at least 3000 fold
pKi ± SEM ([18]; competition with 125I-SST-14): 8.53 ± 0.13
Span [18]: 100±6 % of WT
pIC50 ± SEM [18, 24]: 8.53±0.13
Span [19]: 13±3 % of WT
Span [20]: 19±2 % of WT
Span [21]: 20±5 % of WT
pIC50 ± SEM [21]: 6.35±0.52
Span [22]: 22±6 % of WT
pIC50 ± SEM [22]: 7.45±0.59
Span [23]: 15±2 % of WT

— PMC9343605, “Structural insights into ligand recognition and selectivity of somatostatin receptors” (Cell Research, 2022)
